Data on eleven compounds can be found in ChEMBL document CHEMBL1201862, “PubChem BioAssay data set” (2004).

Some test systems named below: SW-620; RXF 393; 786-0; HOP-62; UO-31; SK-MEL-5; MDA-N; T47D; TK-10; SN12C; NCI-H23; Malme-3M; SNB-19; OVCAR-3; EKVX; HCT-15; Hs-578T; NCI-H460; CCRF-CEM.
Assay in all cases: inhibition of tumour cell growth, NCI panel, 48 h

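Following 48 hours of exposure in 96-well plates, responses at five concentrations were used to interpolate endpoints linearly. Here, GI50 denotes the concentration required for 50% inhibition of growth.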 Calls of active or inactive are those of the source. Cut-off read from the data, not from the text of the source: active = GI50 up to about 1.1 µM and inactive = higher. A value given as a limit tells only on which side of the number the result lay.

Take `c1cc(CCN2CCCCC2)ccn1`: the GI50 in the assay with SW-620, in the assay with RXF 393, with 786-0, in the assay with HOP-62, in the assay with UO-31 and with SK-MEL-5 was > 100 µM (inactive) in each case. The GI50 with MDA-N, in the assay with T47D, with TK-10, in the assay with SN12C, with NCI-H23 and in the assay with Malme-3M was > 100 µM (inactive) each time. Also, the GI50 with SNB-19 is > 100 µM (inactive); in the assay on OVCAR-3 it was > 100 µM (inactive); in the assay with EKVX, > 100 µM (inactive); in the assay on HCT-15, above 100 µM; with Hs-578T it was > 100 µM (inactive); in the assay with NCI-H460, > 100 µM (inactive).
For `ClC(Cl)(Cl)C(N1CCN(c2ccccc2)CC1)N1CCN(c2ccccc2)CC1`, the GI50 in the assay on RXF 393, in the assay with 786-0, in the assay with HOP-62, with UO-31, with SK-MEL-5 and in the assay with MDA-N was > 100 µM (inactive) each time. Also, the GI50 in the assay on T47D, with TK-10, with SN12C, with Malme-3M, in the assay on SNB-19 and with EKVX was > 100 µM (inactive) throughout. Also, the figures for the GI50 in the assay with HCT-15, with Hs-578T and in the assay with NCI-H460 were above 100 µM, > 100 µM (inactive) and > 100 µM (inactive), respectively.
Turning to `Cc1ccc(NCCCN2CCN(CCCNc3ccc(C)c4sc5ccccc5c(=O)c34)CC2)c2c(=O)c3ccccc3sc12`, the GI50 is > 100 µM (inactive) with SW-620; 39.4 µM (inactive) in the assay with RXF 393; 95.5 µM (inactive) in the assay with 786-0; > 100 µM (inactive) with HOP-62; > 100 µM (inactive) in the assay with UO-31; > 100 µM (inactive) in the assay with SK-MEL-5. Moreover, the GI50 with MDA-N was > 100 µM (inactive); in the assay on T47D it was 58.7 µM (inactive); with CCRF-CEM, > 100 µM (inactive); in the assay with SN12C it was > 100 µM (inactive); in the assay on NCI-H23 it was > 100 µM (inactive); with Malme-3M, > 100 µM (inactive). For the same compound, the GI50 with SNB-19 is > 100 µM (inactive); with OVCAR-3, > 100 µM (inactive); in the assay with EKVX, 86.3 µM (inactive); in the assay on HCT-15, above 100 µM; in the assay on Hs-578T, 37.2 µM (inactive); with NCI-H460 it was > 100 µM (inactive).
Consider `O=[N+]([O-])c1cc(F)ccc1Sc1ccccc1`, for which the GI50 with SW-620, in the assay on RXF 393, in the assay on 786-0, in the assay on HOP-62, in the assay with SK-MEL-5 and in the assay with MDA-N was > 10 µM (inactive) in each case. In addition, the GI50 in the assay with T47D, in the assay with CCRF-CEM, in the assay on TK-10, in the assay with SN12C, in the assay with NCI-H23 and in the assay on Malme-3M was > 10 µM (inactive) in each case. For the same compound, the GI50 was > 10 µM (inactive) in the assay on SNB-19; > 10 µM (inactive) in the assay on OVCAR-3; > 10 µM (inactive) in the assay on EKVX; above 10 µM in the assay on HCT-15; > 10 µM (inactive) with Hs-578T; > 10 µM (inactive) with NCI-H460.
Turning to `CN(/N=C/c1cccs1)c1ccc(Cl)cc1[N+](=O)[O-]`, the GI50 with SW-620 was 12.3 µM (inactive); in the assay on RXF 393 it was 23.6 µM (inactive); with 786-0 it was 59.6 µM (inactive); with HOP-62 it was 40.9 µM (inactive); with UO-31 it was 36.9 µM (inactive); with SK-MEL-5, 36.9 µM (inactive). For the same compound, the GI50 in the assay with MDA-N is 3.84 µM (inactive); with T47D, 41.6 µM (inactive); in the assay on CCRF-CEM it was 19.1 µM (inactive); with TK-10 it was 35.2 µM (inactive); with SN12C it was 24.5 µM (inactive); in the assay on NCI-H23, 35.3 µM (inactive). Further, the GI50 with SNB-19 is 56.2 µM (inactive); in the assay with OVCAR-3, 39.8 µM (inactive); in the assay on EKVX, 32.7 µM (inactive); in the assay with HCT-15 it was 10.6 µM; in the assay on Hs-578T it was 25.4 µM (inactive); in the assay with NCI-H460, 23.3 µM (inactive).
For the compound `O=C1CCCCCCCCCCC1CN(Cc1ccccc1)Cc1ccccc1` (configuration not stated), the GI50 in the assay on SW-620 is 45.6 µM (inactive); with RXF 393 it was 15.4 µM (inactive); in the assay on 786-0, 42.6 µM (inactive); in the assay with HOP-62, > 100 µM (inactive); in the assay with UO-31 it was 48.5 µM (inactive); in the assay with SK-MEL-5, 13.1 µM (inactive). The GI50 in the assay on MDA-N is 40.1 µM (inactive); with T47D, 19.1 µM (inactive); in the assay on CCRF-CEM it was 19.9 µM (inactive); in the assay with TK-10, > 100 µM (inactive); in the assay with SN12C, > 100 µM (inactive); with NCI-H23, 32.2 µM (inactive). The GI50 in the assay on Malme-3M was 29.4 µM (inactive); with SNB-19, 34.9 µM (inactive); in the assay on OVCAR-3 it was 44.5 µM (inactive); in the assay with EKVX it was 36.1 µM (inactive); in the assay with HCT-15, 56.5 µM; in the assay with Hs-578T, 22.4 µM (inactive).
For the compound `COc1cccc(OC)c1C1ON=C(c2ccccc2)N1C12CC3CC(CC(C3)C1)C2` (configuration not stated), the GI50 with SW-620 is > 100 µM (inactive); in the assay on RXF 393, 1.2 µM (inactive); with 786-0, 42.1 µM (inactive); in the assay on HOP-62, 80.9 µM (inactive); in the assay on UO-31, > 100 µM (inactive); in the assay with SK-MEL-5, 27.3 µM (inactive). Besides, the GI50 in the assay with MDA-N was > 100 µM (inactive); in the assay with T47D it was 8.3 µM (inactive); with TK-10, 36.6 µM (inactive); in the assay with SN12C, > 100 µM (inactive); in the assay with NCI-H23, > 100 µM (inactive); in the assay with Malme-3M, 38.6 µM (inactive). Besides, the GI50 in the assay on SNB-19 was 13.1 µM (inactive); in the assay on OVCAR-3 it was > 100 µM (inactive); in the assay on EKVX, > 100 µM (inactive); in the assay on HCT-15 it was above 100 µM; in the assay on Hs-578T it was 57.7 µM (inactive); with NCI-H460, > 100 µM (inactive).
On to `O=c1onc2n1-c1ccc(Cl)cc1C(=S)N1CSCC21` (configuration not stated), for which the GI50 in the assay with SW-620 is 20.7 µM (inactive); in the assay with RXF 393, 33.6 µM (inactive); in the assay on 786-0, 23.1 µM (inactive); in the assay with HOP-62, 63.1 µM (inactive); in the assay on UO-31, 59 µM (inactive); in the assay on SK-MEL-5, 19.7 µM (inactive). The GI50 was 8.71 µM (inactive) with MDA-N; 35.7 µM (inactive) in the assay with T47D; 25.9 µM (inactive) with CCRF-CEM; 70.5 µM (inactive) in the assay with TK-10; 29.6 µM (inactive) in the assay with SN12C; 47.3 µM (inactive) with Malme-3M. The GI50 was 22.3 µM (inactive) in the assay with SNB-19; 38.8 µM (inactive) in the assay on OVCAR-3; 29.6 µM (inactive) with EKVX; 26.6 µM in the assay on HCT-15; 22.2 µM (inactive) in the assay with Hs-578T; 20.9 µM (inactive) in the assay on NCI-H460.
`CC1C(=O)OC2CC[N+]3([O-])CC=C(COC(=O)C(C)(O)C1(C)O)C23` (configuration not stated): the GI50 with SW-620, in the assay on RXF 393, in the assay with 786-0, with HOP-62, in the assay with SK-MEL-5 and with MDA-N was > 100 µM (inactive) each time. The GI50 with T47D, in the assay with CCRF-CEM, in the assay with TK-10, in the assay with SN12C, in the assay with NCI-H23 and with Malme-3M was > 100 µM (inactive) throughout. For the same compound, the GI50 was > 100 µM (inactive) in the assay with SNB-19; > 100 µM (inactive) in the assay with OVCAR-3; > 100 µM (inactive) with EKVX; above 100 µM in the assay with HCT-15; > 100 µM (inactive) with Hs-578T; > 100 µM (inactive) in the assay with NCI-H460.
As for `COc1cc(Oc2c(C)c(Cl)c(OC)c(Cl)c2OC)c2c(c1Cl)COC2=O`, the GI50 with SW-620 is 52 µM (inactive); in the assay with RXF 393 it was 35.6 µM (inactive); in the assay on 786-0, 17.1 µM (inactive); in the assay on UO-31, 10.8 µM (inactive); in the assay on SK-MEL-5 it was 12.2 µM (inactive); with MDA-N it was 14.3 µM (inactive). In addition, the GI50 in the assay with T47D was 9.73 µM (inactive); in the assay on CCRF-CEM, 45.1 µM (inactive); in the assay with TK-10, 71.3 µM (inactive); in the assay with SN12C, 17.4 µM (inactive); in the assay with NCI-H23, 18.6 µM (inactive); with Malme-3M, 15.2 µM (inactive). For the same compound, the GI50 in the assay with SNB-19 was 42.2 µM (inactive); in the assay on EKVX it was 22.3 µM (inactive); with HCT-15, 13.9 µM; with Hs-578T it was 54.7 µM (inactive); in the assay with NCI-H460, 10.7 µM (inactive).
`CC1(C)[C@@H]2CC[C@@]1(C)[C@@H]1O[C@@H](O[C@@H](CN)c3cc(Cl)c(OCc4ccccc4)c(OCc4ccccc4)c3)C[C@H]21`: the GI50 in the assay with SW-620 is 0.191 µM (active); in the assay on RXF 393, 0.15 µM (active); in the assay with 786-0 it was 0.181 µM (active); in the assay on HOP-62, 0.179 µM (active); with UO-31, 0.173 µM (active); in the assay with SK-MEL-5 it was 0.178 µM (active). In addition, the GI50 was 0.152 µM (active) with MDA-N; 0.178 µM (active) in the assay on T47D; 0.167 µM (active) in the assay on CCRF-CEM; 0.177 µM (active) in the assay with TK-10; 0.183 µM (active) in the assay on SN12C; 0.183 µM (active) with Malme-3M. In addition, the GI50 in the assay on SNB-19 is 0.183 µM (active); with OVCAR-3 it was 0.168 µM (active); in the assay on EKVX, 0.166 µM (active); in the assay on Hs-578T it was 0.187 µM (active).
